Test results as given in patent US20080222745A1, “Colcemid-Treatment of Oocytes to enhance Nuclear Transfer Cloning” (Utah State University, priority 2007, published 2008).
Where “and” joins values, the source holds several entries; their conditions need not be identical. Equal entries are not always repeated. Entries after “also recorded” stand apart in the source; their conditions may differ. Where two headings read alike, the source gives them in different places. Marks after values point to notes of the source that are not given here.

How the values were obtained:
[1] = system: bovine NT embryos
[2] = system: bovine oocytes; conditions: colcemid vs control, 15-22 hr maturation
Procedure: Oocytes were vortexed in 1 ml PB1+ containing 10 mg/ml hyaluronidase for 4 minutes to completely remove cumulus cells. Oocytes of good quality were selected for use. Oocytes were loaded with Ca^2+ indicator by incubation in 2 μM Fura-2 AM ester (Molecular Probes, Eugene, Oreg.) and 0.02% Pluronic F-127 (Molecular Probes) in Ca^2+- and Mg^2+-free phosphate buffered saline (Hyclone Laboratories) containing 0.32 mM sodium pyruvate, 5.55 mM glucose, 3 mg/ml BSA, and 100 μM EGTA at 39° C. in darkness for 45 min. After loading with indicator, oocytes were washed extensively with PB1+ (phosphate-buffered saline with Ca^2+ and Mg^2+ plus 5.55 mM glucose, 0.32 mM sodium pyruvate, 3 mg/ml BSA) and maintained in this solution at 39° C. until use.
Fura-2 loaded oocytes were transferred to a 50-μl drop of PB1+ medium covered with mineral oil.

[3] = system: NT embryos transferred to recipient cows; experiment: Pregnancy rates after transfer of NT embryos to recipient cows; format: in vivo, bovine
Excerpt: FIG. 1 is a diagram showing pregnancy rates throughout gestation following transfer of NT embryos derived from colcemid-treated versus untreated heifer cytoplasts. […] Six to seven days after NT, morulae and blastocysts were transferred to recipient cows. The solid bars show pregnancy rates for nuclear transfer embryos generated from heifer oocytes which were not treated with colcemid.
The day 6-7 morulae and blastocysts were selected and transferred to recipient cows. A total of 191 recipient cows were used for embryo transfer. Forty cows received embryos from colcemid-treated oocytes and 151 cows received embryos from non-treated oocytes. Pregnancy rates were monitored throughout gestation.

[4] = system: bovine NT blastocysts; experiment: Chromosomal analysis and cell number count of Day 7 NT blastocysts; format: cell-based; conditions: for No. cells blastocysts (mean ± SD): oocytes matured 16-17 hours, 0.2 μg/ml for 2-3 hours; for Cell number of blastocysts (mean ± SD): 0.2 μg/ml for 2-3 hr
Procedure: Day 7 blastocysts were prepared and examined for their cytogenetic composition and the number of nuclei contained was verified. […] Chromosomes were examined at 1000× under a Zeiss microscope, and the chromosome composition was determined for each blastocyst.

[5] = system: bovine oocytes; experiment: Membrane projections of bovine oocytes after colcemid treatment; format: cell-based; conditions: for oocytes exhibiting an obvious membrane projection: colcemid treatment for 2 to 4 hr

CN[C@H]1CCc2cc(OC)c(OC)c(OC)c2-c2ccc(OC)c(=O)cc21 [colcemid, N-deacetyl-N-methylcolchicine]
Blastocyst (%) ([1]; Table 3: oocytes matured 16-17 hr, 0.2 μg/ml for 2-3 h, 38 of 90 embryos cultured): 38 (42.2)^a %
Morula (%) ([1]; Table 3: oocytes matured 16-17 hr, 0.2 μg/ml for 2-3 h, 44 of 90 embryos cultured): 44 (48.9)^a %
2-cell (%) ([1]; Table 3: oocytes matured 16-17 hr, 0.2 μg/ml for 2-3 h, 76 of 90 embryos cultured): 76 (84.4) %
cleavage of NT embryos ([1]; among treatment groups, vs controls, 0.2 μg/ml for 2-3 hr): no difference
rate of hatched blastocysts vs untreated groups ([1]; colcemid groups vs untreated groups): much higher
rate of morula and blastocyst development vs untreated groups ([1]; culture in SCR or BCR media): improved
Blastocyst (%) ([1]; culture system BCR, oocytes matured 16-17 hours, 0.2 μg/ml for 2-3 hours, 20 of 110 cloned embryos, 5% CO2 in air): 18.6% and 20 (18.2)^c %
Morula (%) ([1]; culture system BCR, oocytes matured 16-17 hours, 0.2 μg/ml for 2-3 hours, 27 of 110 cloned embryos): 27 (24.5)^b %
2-cell (%) ([1]; culture system BCR, oocytes matured 16-17 hours, 0.2 μg/ml for 2-3 hours, 81 of 110 cloned embryos): 81 (73.6) %
Hatched blastocyst (%) ([1]; culture system BCR, oocytes matured 16-17 hours, 0.2 μg/ml for 2-3 hours, 110 cloned embryos): 0%
Hatched blastocyst (%) ([1]; culture system SCR and co-culture, oocytes matured 16-17 hours, 0.2 μg/ml for 2-3 hours, 19 of 86 cloned embryos): 19 (22.0)^a %
Blastocyst (%) ([1]; culture system SCR and co-culture, oocytes matured 16-17 hours, 0.2 μg/ml for 2-3 hours, 34 of 86 cloned embryos): 39.5% and 34 (39.5)^a %
Morula (%) ([1]; culture system SCR and co-culture, oocytes matured 16-17 hours, 0.2 μg/ml for 2-3 hours, 42 of 86 cloned embryos): 42 (48.8)^a %
2-cell (%) ([1]; culture system SCR and co-culture, oocytes matured 16-17 hours, 0.2 μg/ml for 2-3 hours, 74 of 86 cloned embryos): 74 (86.0) %
Hatched blastocyst (%) ([1]; culture system SCR, oocytes matured 16-17 hours, 0.2 μg/ml for 2-3 hours, 5 of 135 cloned embryos): 5 (3.7)^b %
Blastocyst (%) ([1]; culture system SCR, oocytes matured 16-17 hours, 0.2 μg/ml for 2-3 hours, 31 of 135 cloned embryos): 31 (23.0)^b %
Morula (%) ([1]; culture system SCR, oocytes matured 16-17 hours, 0.2 μg/ml for 2-3 hours, 41 of 135 cloned embryos): 41 (30.3)^b %
2-cell (%) ([1]; culture system SCR, oocytes matured 16-17 hours, 0.2 μg/ml for 2-3 hours, 96 of 135 cloned embryos): 96 (71.1) %
Hatching Blastocyst (%) ([1]; oocytes matured 14-15 hr, without PB1, 0.2 μg/ml for 2-3 hr, 26 of 100 embryos cultured): 26 (26)^a %
Blastocyst (%) ([1]; oocytes matured 14-15 hr, without PB1, 0.2 μg/ml for 2-3 hr, 40 of 100 embryos cultured): 40% and 40 (40)^a %
Morula (%) ([1]; oocytes matured 14-15 hr, without PB1, 0.2 μg/ml for 2-3 hr, 48 of 100 embryos cultured): 48 (48) %
2-cell (%) ([1]; oocytes matured 14-15 hr, without PB1, 0.2 μg/ml for 2-3 hr, 85 of 100 embryos cultured): 85 (85) %
Hatching Blastocyst (%) ([1]; oocytes matured 16-17 hr, with PB1, 0.2 μg/ml for 2-3 hr, 21 of 81 embryos cultured): 21 (25.9)^a %
Blastocyst (%) ([1]; oocytes matured 16-17 hr, with PB1, 0.2 μg/ml for 2-3 hr, 36 of 81 embryos cultured): 44.4% and 36 (44.4)^a %
Morula (%) ([1]; oocytes matured 16-17 hr, with PB1, 0.2 μg/ml for 2-3 hr, 45 of 81 embryos cultured): 45 (55.6) %
2-cell (%) ([1]; oocytes matured 16-17 hr, with PB1, 0.2 μg/ml for 2-3 hr, 69 of 81 embryos cultured): 69 (85.2) %
Hatching Blastocyst (%) ([1]; oocytes matured 16-17 hr, without PB1, 0.2 μg/ml for 2-3 hr, 22 of 90 embryos cultured): 22 (24.2)^a %
Blastocyst (%) ([1]; oocytes matured 16-17 hr, without PB1, 0.2 μg/ml for 2-3 hr, 38 of 90 embryos cultured): 42.2% and 38 (42.2)^a %
Morula (%) ([1]; oocytes matured 16-17 hr, without PB1, 0.2 μg/ml for 2-3 hr, 44 of 90 embryos cultured): 44 (48.9) %
2-cell (%) ([1]; oocytes matured 16-17 hr, without PB1, 0.2 μg/ml for 2-3 hr, 76 of 90 embryos cultured): 76 (84.4) %
Blastocyst (%) ([1]; oocytes matured 16-17 hr, 0.2 μg/ml for 5-6 h, 32 of 76 embryos cultured): 32 (42.1)^a %
Morula (%) ([1]; oocytes matured 16-17 hr, 0.2 μg/ml for 5-6 h, 37 of 76 embryos cultured): 37 (48.7)^a %
2-cell (%) ([1]; oocytes matured 16-17 hr, 0.2 μg/ml for 5-6 h, 69 of 76 embryos cultured): 69 (90.8) %
Blastocyst (%) ([1]; oocytes matured 16-17 hr, 0.4 μg/ml for 2-3 h, 32 of 73 embryos cultured): 32 (43.8)^a %
Morula (%) ([1]; oocytes matured 16-17 hr, 0.4 μg/ml for 2-3 h, 37 of 73 embryos cultured): 37 (50.7)^a %
2-cell (%) ([1]; oocytes matured 16-17 hr, 0.4 μg/ml for 2-3 h, 66 of 73 embryos cultured): 66 (90.4) %
Blastocyst (%) ([1]; oocytes matured 16-17 hr, 0.4 μg/ml for 5-6 h, 31 of 81 embryos cultured): 31 (38.8)^a %
Morula (%) ([1]; oocytes matured 16-17 hr, 0.4 μg/ml for 5-6 h, 39 of 81 embryos cultured): 39 (48.1)^a %
2-cell (%) ([1]; oocytes matured 16-17 hr, 0.4 μg/ml for 5-6 h, 66 of 81 embryos cultured): 66 (81.5) %
Blastocyst (%) ([1]; oocytes matured 19-20 hr, with PB1, 0.2 μg/ml for 2-3 hr, 30 of 107 embryos cultured): 30 (28.0)^b %
Morula (%) ([1]; oocytes matured 19-20 hr, with PB1, 0.2 μg/ml for 2-3 hr, 38 of 107 embryos cultured): 38 (35.5) %
2-cell (%) ([1]; oocytes matured 19-20 hr, with PB1, 0.2 μg/ml for 2-3 hr, 88 of 107 embryos cultured): 88 (82.2) %
Hatching Blastocyst (%) ([1]; oocytes matured 19-20 hr, with PB1, 0.2 μg/ml for 2-3 hr, printed count 6, 107 embryos cultured): 6 (15.0)^b %
Hatching Blastocyst (%) ([1]; oocytes matured 19-20 hr, without PB1, 0.2 μg/ml for 2-3 hr, 14 of 66 embryos cultured): 14 (21.2)^a %
Blastocyst (%) ([1]; oocytes matured 19-20 hr, without PB1, 0.2 μg/ml for 2-3 hr, 25 of 66 embryos cultured): 38% and 25 (37.9)^a %
Morula (%) ([1]; oocytes matured 19-20 hr, without PB1, 0.2 μg/ml for 2-3 hr, 32 of 66 embryos cultured): 32 (48.5) %
2-cell (%) ([1]; oocytes matured 19-20 hr, without PB1, 0.2 μg/ml for 2-3 hr, 56 of 66 embryos cultured): 56 (84.8) %
average blastocyst development rate ([1]; under 5% CO2 in air, especially oocytes matured for 14 to 17 hr and treated with colcemid): over 40%
intracellular calcium transients, trend between treatments [2]: No trend
term rate ([3]; MI heifer oocytes matured 16-17 hr, 0.2 or 0.4 μg/ml colcemid 2-3 hr, 40 recipient cows, non-treated group 3.3%): 12.5%
pregnancy rates vs non-treated group ([3]; at 60, 90, 180 days, P<0.05): Higher
Cell numbers of blastocysts vs control groups ([4]; colcemid-treated groups vs control groups): numerically higher; also recorded: numerical higher
No. cells blastocysts (mean ± SD) ([4]; culture system BCR): 50.3 ± 7.6^c
No. cells blastocysts (mean ± SD) ([4]; culture system SCR and co-culture): 107.8 ± 21.6^a
No. cells blastocysts (mean ± SD) ([4]; culture system SCR): 70.5 ± 7.8^b
cell number of blastocysts vs untreated ([4]; embryos cultured in SCR and BCR systems): increased
Cell number of blastocysts (mean ± SD) ([4]; oocytes matured 14-15 hr, without PB1): 113 ± 10
Cell number of blastocysts (mean ± SD) ([4]; oocytes matured 16-17 hr, with PB1): 103 ± 20
Cell number of blastocysts (mean ± SD) ([4]; oocytes matured 16-17 hr, without PB1): 118 ± 17
Cell number of blastocysts (mean ± SD) ([4]; oocytes matured 19-20 hr, with PB1): 91 ± 9
Cell number of blastocysts (mean ± SD) ([4]; oocytes matured 19-20 hr, without PB1): 107 ± 11
No. oocytes with blebs or Pb1 + bleb (%) ([5]; oocytes with PB1 matured 16-17 hr, 0.2 μg/ml for 2 h, 26 of 36 oocytes): 26 (72.2) %
No. oocytes with blebs or Pb1 + bleb (%) ([5]; oocytes with PB1 matured 16-17 hr, 0.2 μg/ml for 4 h, 31 of 39 oocytes): 31 (79.5) %
No. oocytes with blebs or Pb1 + bleb (%) ([5]; oocytes with PB1 matured 16-17 hr, 0.4 μg/ml for 2 h, 29 of 38 oocytes): 29 (76.3) %
No. oocytes with blebs or Pb1 + bleb (%) ([5]; oocytes with PB1 matured 16-17 hr, 0.4 μg/ml for 4 h, 28 of 38 oocytes): 28 (73.6) %
oocytes exhibiting an obvious membrane projection ([5]; oocytes with PB1 matured 16-17 hr): approximately 80%
No. oocytes with blebs or Pb1 + bleb (%) ([5]; oocytes without PB1 matured 16-17 hr, 0.1 μg/ml for 1 h, 32 of 46 oocytes): 32 (69.6) %
No. oocytes with blebs or Pb1 + bleb (%) ([5]; oocytes without PB1 matured 16-17 hr, 0.1 μg/ml for 2 h, 39 of 48 oocytes): 39 (81.2) %
No. oocytes with blebs or Pb1 + bleb (%) ([5]; oocytes without PB1 matured 16-17 hr, 0.1 μg/ml for 4 h, 43 of 46 oocytes): 43 (93.4) %
No. oocytes with blebs or Pb1 + bleb (%) ([5]; oocytes without PB1 matured 16-17 hr, 0.2 μg/ml for 2 h, 33 of 42 oocytes): 33 (78.6) %
No. oocytes with blebs or Pb1 + bleb (%) ([5]; oocytes without PB1 matured 16-17 hr, 0.2 μg/ml for 4 h, 38 of 42 oocytes): 38 (90.5) %
No. oocytes with blebs or Pb1 + bleb (%) ([5]; oocytes without PB1 matured 16-17 hr, 0.4 μg/ml for 2 h, 35 of 43 oocytes): 35 (81.3) %
No. oocytes with blebs or Pb1 + bleb (%) ([5]; oocytes without PB1 matured 16-17 hr, 0.4 μg/ml for 4 h, 34 of 41 oocytes): 34 (82.9) %
oocytes exhibiting an obvious membrane projection ([5]; oocytes without PB1 matured 16-17 hr): 80-93%
